Experiments:
RORγ LBD = RORγ LBD (Homo sapiens (Human), UniProt P51449); test: ROR gamma radio-ligand binding assay (3H 25-Hydroxycholesterol competitive displacement, dextran charcoal method); conditions: for inhibition at 1 µM: 1 μM compound; for inhibition at 10 µM: 10 μM compound; for IC50: in range
Procedure: Gene corresponding to the ligand binding domain of RORγ (247-497 amino acids) was sub-cloned into pGEX4T1 vector. Transformants of E. coli BL21 (DE3) containing pGEX4T1-RORγ (247-497) were grown to an OD of 0.8 at 37° C. and induced with 0.5 mM isopropyl-β-D-thiogalactopyranoside (IPTG) for 18 hours at 18° C. Cells were harvested and resuspended in 20 mM Tris-HCl (pH 8.5), 0.3 M NaCl, 10% Glycerol, 2 mM β-Me (β-Mercaptoethanol), 2 mM CHAPS, protease inhibitors, 0.6 mM PMSF and Lysozyme. Supernatant of lysate was passed through glutathione sepharose 4B affinity beads (GE health care) pre-equilibrated with 20 mM Tris-HCl (pH 8.5), 0.3 M NaCl, 10% Glycerol, 2 mM β-Me. RORγ was eluted using a gradient of reduced glutathione (3-20 mM). Fractions containing RORγ protein were pooled, concentrated and passed through Superdex 75 gel filtration (GE health care) column equilibrated with 20 mM Na-phosphate pH 8.0, 0.2 M NaCl, 10% glycerol. The peak fractions from gel filtration column were pooled and stored at −80° C. for Binding assay.
ROR gamma radioligand binding was performed using ^3H 25-Hydroxycholesterol in a competitive displacement assay using dextran charcoal method. Using 5 nM ^3H 25-Hydroxycholesterol with 300 ng RORγ LBD (in house expressed in E. coli) along with the compound were incubated in the binding buffer (50 mM HEPES, pH 7.5, 150 mM NaCl, 0.01% BSA and 5 mM MgCl2) for 30 min at room temperature. Then dextran-charcoal mixture (0.5% charcoal: 0.05% dextran) was used for separation and the supernatant was read on the Perkin Elmer Trilux Microbeta counter. Dose response curves were generated for 10 compound concentrations using GraphPad Prism software Version 5 (San Diego, Calif., USA) using non-linear regression curve fit for sigmoidal dose response (variable slope).

[1] = biological target: ROR gamma ligand binding domain (Homo sapiens (Human), UniProt P51449); test: ROR gamma luciferase reporter assay (GAL4-ROR gamma LBD, HEK293 cells); format: cell-based; conditions: 48 hours treatment, read-out: RORγ luciferase Reporter assay: IC50 (nM) (in range)
Chain of ROR gamma ligand binding domain (P51449 269-508): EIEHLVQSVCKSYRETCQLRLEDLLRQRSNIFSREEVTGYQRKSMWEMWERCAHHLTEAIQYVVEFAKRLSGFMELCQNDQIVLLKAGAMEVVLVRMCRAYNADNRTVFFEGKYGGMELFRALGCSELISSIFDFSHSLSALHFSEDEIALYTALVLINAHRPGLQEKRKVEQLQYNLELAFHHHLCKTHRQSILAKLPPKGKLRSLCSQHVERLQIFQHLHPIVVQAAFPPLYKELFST
Procedure, shortened: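 HEK293 cells were co-transfected with a GAL4 DBD–RORγ LBD fusion (hRluc vector) and a 9xGAL4 UAS luc2P reporter, then treated with compounds for 48 h. Bright-Glo luminescence was used to derive potency.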

Chain of RORγ LBD (P51449 268-518): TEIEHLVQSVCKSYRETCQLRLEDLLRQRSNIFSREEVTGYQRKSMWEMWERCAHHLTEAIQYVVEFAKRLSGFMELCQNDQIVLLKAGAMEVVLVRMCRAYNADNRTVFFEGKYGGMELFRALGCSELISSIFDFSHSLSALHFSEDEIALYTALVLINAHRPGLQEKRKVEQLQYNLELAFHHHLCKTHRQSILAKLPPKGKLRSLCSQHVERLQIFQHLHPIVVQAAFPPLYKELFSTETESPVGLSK

| Structure (SMILES) | inhibition at 1 µM (RORγ LBD) | inhibition at 10 µM (RORγ LBD) | IC50 (RORγ LBD) | IC50 [1] |
| --- | --- | --- | --- | --- |
| CCS(=O)(=O)c1ccc(CC(=O)Nc2ccc3c(n2)CCC(C)(c2cc(C)nc(C)n2)C3=O)cc1 (centres unmarked) [Compound 7, N-(6-(2,6-dimethylpyrimidin-4-yl)-6-methyl-5-oxo-5,6,7,8-tetrahydroquinolin-2-yl)-2-(4-(ethylsulfonyl)phenyl)acetamide] | 91% | 100% | < 150 nM | 100 to 500 nM |
| CCS(=O)(=O)c1ccc(CC(=O)Nc2ccc3c(n2)CCC(C)(c2nccn4cc(C)nc24)C3=O)cc1 (centres unmarked) [Compound 9, 2-(4-(ethylsulfonyl)phenyl)-N-(6-methyl-6-(2-methylimidazo[1,2-a]pyrazin-8-yl)-5-oxo-5,6,7,8-tetrahydroquinolin-2-yl)acetamide] | 90% | 100% | < 150 nM | 100 to 500 nM |
| CCS(=O)(=O)c1ccc(CC(=O)Nc2nc3c(cc2C)C(=O)C(C)(c2nccn4ccnc24)CC3)cc1 (centres unmarked) [Compound 11, 2-(4-(ethylsulfonyl)phenyl)-N-(6-(imidazo[1,2-a]pyrazin-8-yl)-3,6-dimethyl-5-oxo-5,6,7,8-tetrahydroquinolin-2-yl)acetamide] | 25% | 71% | – | > 500 nM |
| CCS(=O)(=O)c1ccc(CC(=O)Nc2ccc3c(n2)CCC(C)(c2ccc(OC)nn2)C3=O)cc1 (centres unmarked) [Compound 12, 2-(4-(ethylsulfonyl)phenyl)-N-(6-(6-methoxypyridazin-3-yl)-6-methyl-5-oxo-5,6,7,8-tetrahydroquinolin-2-yl)acetamide] | – | – | < 150 nM | 100 to 500 nM |
| CCC1(c2nccn3ccnc23)CCc2nc(NC(=O)Cc3ccc(S(=O)(=O)CC)cc3)ccc2C1=O (centres unmarked) [Compound 14, N-(6-ethyl-6-(imidazo[1,2-a]pyrazin-8-yl)-5-oxo-5,6,7,8-tetrahydroquinolin-2-yl)-2-(4-(ethylsulfonyl)phenyl)acetamide] | 0% | 26% | – | > 500 nM |
| CCS(=O)(=O)c1ccc(CC(=O)Nc2ccc3c(n2)CCC(C)(c2nccn4cccc24)C3=O)cc1 (centres unmarked) [Compound 15, 2-(4-(ethylsulfonyl)phenyl)-N-(6-methyl-5-oxo-6-(pyrrolo[1,2-a]pyrazin-1-yl)-5,6,7,8-tetrahydroquinolin-2-yl)acetamide] | 95% | 92% | < 150 nM | < 100 nM |
| CCS(=O)(=O)c1ccc(CC(=O)Nc2ccc3c(n2)CCC(C)(c2nc(C)cn4ccnc24)C3=O)cc1 (centres unmarked) [Compound 16, 2-(4-(ethylsulfonyl)phenyl)-N-(6-methyl-6-(6-methylimidazo[1,2-a]pyrazin-8-yl)-5-oxo-5,6,7,8-tetrahydroquinolin-2-yl)acetamide] | 86% | 93% | 150 to 300 nM | < 100 nM |
| CCS(=O)(=O)c1ccc(CC(=O)Nc2cc(C)c3c(n2)CCC(C)(c2ccc(OC)nc2)C3=O)cc1 (centres unmarked) [Compound 17, 2-(4-(ethylsulfonyl)phenyl)-N-(6-(6-methoxypyridin-3-yl)-4,6-dimethyl-5-oxo-5,6,7,8-tetrahydroquinolin-2-yl)acetamide] | 92% | 96% | – | < 100 nM |
| CCS(=O)(=O)c1ccc(CC(=O)Nc2cc(C)c3c(n2)CCC(C)(c2ccc(OC)cn2)C3=O)cc1 (centres unmarked) [Compound 20, 2-(4-(ethylsulfonyl)phenyl)-N-(6-(5-methoxypyridin-2-yl)-4,6-dimethyl-5-oxo-5,6,7,8-tetrahydroquinolin-2-yl)acetamide] | 76% | 95% | – | 100 to 500 nM |
| CCS(=O)(=O)c1ccc(CC(=O)Nc2cc(C)c3c(n2)CCC(C)(c2nccc(OC)n2)C3=O)cc1 (centres unmarked) [Compound 21, 2-(4-(ethylsulfonyl)phenyl)-N-(6-(4-methoxypyrimidin-2-yl)-4,6-dimethyl-5-oxo-5,6,7,8-tetrahydroquinolin-2-yl)acetamide] | 94% | 92% | 150 to 300 nM | < 100 nM |
| CCS(=O)(=O)c1ccc(CC(=O)Nc2cc(C)c3c(n2)CCC(C)(c2cc(OC)ccn2)C3=O)cc1 (centres unmarked) [Compound 22, 2-(4-(ethylsulfonyl)phenyl)-N-(6-(4-methoxypyridin-2-yl)-4,6-dimethyl-5-oxo-5,6,7,8-tetrahydroquinolin-2-yl)acetamide] | 76% | 95% | – | 100 to 500 nM |
| CCS(=O)(=O)c1ccc(CC(=O)Nc2cc(C)c3c(n2)CCC(C)(c2nccn4ccnc24)C3=O)cc1 (centres unmarked) [Compound 26, 2-(4-(ethylsulfonyl)phenyl)-N-(6-(imidazo[1,2-a]pyrazin-8-yl)-4,6-dimethyl-5-oxo-5,6,7,8-tetrahydroquinolin-2-yl)acetamide] | 65% | 99% | > 300 nM | 100 to 500 nM |
| CCS(=O)(=O)c1ccc(CC(=O)Nc2cc(C)c3c(n2)CCC(C)(c2cc(C)nc(C)n2)C3=O)cc1 (centres unmarked) [Compound 28, N-(6-(2,6-dimethylpyrimidin-4-yl)-4,6-dimethyl-5-oxo-5,6,7,8-tetrahydroquinolin-2-yl)-2-(4-(ethylsulfonyl)phenyl)acetamide] | 77% | 100% | 150 to 300 nM | 100 to 500 nM |
| CCS(=O)(=O)c1ccc(CC(=O)Nc2cc(C)c3c(n2)CCC(C)(c2nc(C)cc(C)n2)C3=O)cc1 (centres unmarked) [Compound 29, N-(6-(4,6-dimethylpyrimidin-2-yl)-4,6-dimethyl-5-oxo-5,6,7,8-tetrahydroquinolin-2-yl)-2-(4-(ethylsulfonyl)phenyl)acetamide] | 84% | 91% | 150 to 300 nM | < 100 nM |
| CCS(=O)(=O)c1ccc(CC(=O)Nc2cc(C)c3c(n2)CCC(C)(c2ccc(OC)nn2)C3=O)cc1 (centres unmarked) [Compound 31, 2-(4-(ethylsulfonyl)phenyl)-N-(6-(6-methoxypyridazin-3-yl)-4,6-dimethyl-5-oxo-5,6,7,8-tetrahydroquinolin-2-yl)acetamide] | 90% | 88% | < 150 nM | < 100 nM |
| CCS(=O)(=O)c1ccc(CC(=O)Nc2cc(C)c3c(n2)CCC(C)(c2ccc(C)nn2)C3=O)cc1 (centres unmarked) [Compound 34, N-(4,6-dimethyl-6-(6-methylpyridazin-3-yl)-5-oxo-5,6,7,8-tetrahydroquinolin-2-yl)-2-(4-(ethylsulfonyl)phenyl)acetamide] | 74% | 97% | > 300 nM | > 500 nM |
| COc1ccc(C2(C)CCc3nc(NC(=O)Cc4ccc(S(C)(=O)=O)cc4)cc(C)c3C2=O)nn1 (centres unmarked) [Compound 35, N-(6-(6-methoxypyridazin-3-yl)-4,6-dimethyl-5-oxo-5,6,7,8-tetrahydroquinolin-2-yl)-2-(4-(methylsulfonyl)phenyl)acetamide] | 80% | 98% | 150 to 300 nM | 100 to 500 nM |
| CCS(=O)(=O)c1ccc(CC(=O)Nc2ccc3c(n2)CCC(C)(c2ccc(O)nc2)C3=O)cc1 (centres unmarked) [Compound 40, 2-(4-(ethylsulfonyl)phenyl)-N-(6-(6-hydroxypyridin-3-yl)-6-methyl-5-oxo-5,6,7,8-tetrahydroquinolin-2-yl)acetamide] | 44% | 88% | – | > 500 nM |
| CCc1ccc(C2(C)CCc3nc(NC(=O)Cc4ccc(S(=O)(=O)CC)cc4)ccc3C2=O)nn1 (centres unmarked) [Compound 41, N-(6-(6-ethylpyridazin-3-yl)-6-methyl-5-oxo-5,6,7,8-tetrahydroquinolin-2-yl)-2-(4-(ethylsulfonyl)phenyl)acetamide] | 47% | 82% | – | > 500 nM |
| CCS(=O)(=O)c1ccc(CC(=O)Nc2ccc3c(n2)CCC(C)(c2ccc(C)s2)C3=O)cc1 (centres unmarked) [Compound 45, 2-(4-(ethylsulfonyl)phenyl)-N-(6-methyl-6-(5-methylthiophen-2-yl)-5-oxo-5,6,7,8-tetrahydroquinolin-2-yl)acetamide] | 66% | 73% | – | < 100 nM |
| CCS(=O)(=O)c1ccc(CC(=O)Nc2ccc3c(n2)CCC(C)(c2nccn4c(C)cnc24)C3=O)cc1 (centres unmarked) [Compound 49, 2-(4-(ethylsulfonyl)phenyl)-N-(6-methyl-6-(3-methylimidazo[1,2-a]pyrazin-8-yl)-5-oxo-5,6,7,8-tetrahydroquinolin-2-yl)acetamide] | 93% | 82% | 150 to 300 nM | 100 to 500 nM |
